Reference: article PMC3488872 (Chemistry & biology, 2012)

Test system: HeLa cells transfected with GR-GFP
Test: GR-GFP translocation assay for cytosolic access

How did the “effect of bafilomycin on TR” value (200 nM bafilomycin 1 h pretreatment, then 1 μM) turn out when C[C@@H]1C[C@H]2[C@@H]3CCC4=CC(=O)C=C[C@]4(C)[C@@]3(F)[C@@H](O)C[C@]2(C)[C@@]1(O)C(=O)CO [Dex, dexamethasone] was run?
The value was “did not alter”.

And the “effect of EIPA on TR” value (50 μM EIPA 30 min pretreatment, then 1 μM 30 min 37°C)?
The value was “Neither EIPA nor dynasore blocked the increase”.

What about the “effect of dynasore on TR” value (80 μM dynasore 30 min pretreatment, then 1 μM 30 min 37°C) of the same compound?
Its value is “Neither EIPA nor dynasore blocked the increase”.

And the “reduction of the increase in TR by MβCD” value (5 mM MβCD, 1 μM 30 min)?
The value was 53%.
